Data from patent US12539287B2, “L-DOPA microbiome therapy” (Iowa State University Research Foundation, Inc., priority 2018, dated 2026).

Columns and labels:
[1] = humans; cited from earlier work
[2] = cited from earlier work
[3] = Bz 50 mg/kg 3 times/day
Method: Mice were orally administered a single daily dose of 10^9 CFU EcN^2L-DOPA or PBS and also Bz (50 mg/kg) 3 times/day for 1 and 2 days. Plasma samples collected through submandibular sampling prior to EcN^2L-DOPA treatment (serving as baseline), and at 4, 8, 16, 24 and 48 h post-EcN^2L-DOPA and Bz (50 mg/kg) treatment, were assayed for L-DOPA production by HPLC. […] We increased the dose and frequency of Bz because of its short half-life.

SMILES | optimal therapeutic plasma levels [1] [ng/mL] | solubility in water [2] | duration of Bz plasma levels [3]
N[C@@H](Cc1ccc(O)c(O)c1)C(=O)O [L-DOPA, (−)-L-a-amino-b-(3,4-dihydroxybenzene)propanoic acid] | 300 to 1600 | slightly soluble in water | –
NC(CO)C(=O)NNCc1ccc(O)c(O)c1O (stereo not drawn) [Bz, benserazide] | – | – | up to 30 h
